Laboratory results reported in patent publication US12111318B2, “Method for treating cancer based on expression levels of translationally controlled tumor protein (TCTP)” (KOREA UNIVERSITY RESEARCH AND BUSINESS FOUNDATION, priority 2020, dated 2024).
Where two headings read alike, the source gives them in different places.

Legend:
CT26 No cells = experiment: Cell viability assay (trypan blue exclusion), CT26 No cells; type: cell-based; details: Mus musculus, 24 hours, read-out: IC50 (concentration causing a 50% decrease in cell viability)
Procedure: (§1) CT26 tumor cells were treated with indicated concentrations of cisplatin, dihydroartemisinin, rapamycin, sertraline, and thioridazine for 24 hours. Cell viability was measured by the trypan blue exclusion assay, and the concentrations causing a 50% decrease in cell viability (IC50 values) were determined.

CT26 TCTP cells = experiment: Cell viability assay (trypan blue exclusion), CT26 TCTP cells; type: cell-based
Procedure: as §1

CT26 TCTP tumor cells = tested on: CT26 TCTP tumor cells
Procedure: The tumor cells were harvested by trypsinization and washed once with DMEN (Thermo Fisher, USA) containing 0.1% fetal bovine (FBS), resuspended, and labeled in 0.1% DMEN with 10 μM CFSE for 10 minutes in a 37° C. incubator with 5% CO2. Then, the CFSE-labeled (MCF-7, HCT116, CaSki, MDA-MB-231) tumor cells were resuspended in 10 μM MART-1 peptide containing 1 ml of DMEM. In the case of A375 and 526Mel, the peptide-pulsing process was not needed. After peptide-pulsing for 1 hour, the cells were incubated for 4 hours with MART-1- or the NY-ESO1-specific CD8+ T cell lines at an E/T ratio of 1:1. […] All analysis was performed using a Becton Dickinson FACSverse (BD Bioscience, USA).
To further investigate the effect of each drug on sensitizing TCTP^high tumor cells to CTL-mediated killing, CT26 TCTP tumor cells were incubated with CTLs at various tumor cell-T cell ratios after treatment with a sublethal dose of each drug.
To quantify the synergistic effects of treatment of each drug with CTLs, a combination score was calculated based on changes in the percentage of apoptosis in drug-treated tumor cells with or without CTLs (see the following formula 1). […] Formula 1

CT26 P3 tumor = experiment: ICB-refractory CT26 P3 tumor-bearing mice, anti-PD-L1 antibody alone or combined with DHA; type: in vivo, mouse; details: both the anti-PD-L1 blockade agent and DHA; all mice in the other groups died
Procedure: Next, the present inventors expanded the preclinical therapeutic value of DHA in ICB therapy. To do this, ICB-refractory CT26 P3 tumor-bearing mice were administered anti-PD-L1 antibody alone or combined with DHA (FIG. 7G).

For `C[C@H]1[C@@H](O)O[C@@H]2O[C@@]3(C)CC[C@H]4[C@H](C)CC[C@@H]1[C@@]24OO3` [DHA, dihydroartemisinin], the IC50 (CT26 No cells) was 408 µM, the “Difference of IC50 between CT26 No and CT26 TCTP cells” value (CT26 TCTP cells; CT26 No vs CT26 TCTP) was “about 20 fold” and the IC50 (CT26 TCTP cells; Mus musculus, CT26 TCTP cells, 24 hours, read-out: IC50 (concentration causing a 50% decrease in cell viability)) was 22.7 µM. The CTL-mediated cytotoxicity (CT26 TCTP tumor cells; sublethal dose of each drug, then CTLs at various tumor cell-T cell ratios, compared to PBS or cisplatin) was “augmented CTL-mediated cytotoxicity in a synergistic fashion” and the Mice that survived (CT26 P3 tumor) was 90%.
For `N.N.[Cl][Pt][Cl]` [cisplatin], the “Susceptibility of CT26 TCTP cells to the drug” value (CT26 TCTP cells; CT26 TCTP vs CT26 No cells, 24 hours) was “refractory”.
With `CO[C@H]1C[C@@H]2CC[C@@H](C)[C@@](O)(O2)C(=O)C(=O)N2CCCC[C@H]2C(=O)O[C@H]([C@H](C)C[C@@H]2CC[C@@H](O)[C@H](OC)C2)CC(=O)[C@H](C)/C=C(\C)[C@@H](O)[C@@H](OC)C(=O)[C@H](C)C[C@H](C)/C=C/C=C/C=C/1C` [rapamycin] the CTL-mediated cytotoxicity (CT26 TCTP tumor cells) was “augmented CTL-mediated cytotoxicity in a synergistic fashion”.
For `CN[C@H]1CC[C@@H](c2ccc(Cl)c(Cl)c2)c2ccccc21` [sertraline], the CTL-mediated cytotoxicity (CT26 TCTP tumor cells) was “augmented CTL-mediated cytotoxicity in a synergistic fashion”.
In the case of `CSc1ccc2c(c1)N(CCC1CCCCN1C)c1ccccc1S2` (stereo not drawn) [thioridazine], the CTL-mediated cytotoxicity (CT26 TCTP tumor cells) is reported as “augmented CTL-mediated cytotoxicity in a synergistic fashion”.
